Numbers after ± are expanded uncertainties.
Conditions: Liquid, Vibrating tube method

CCCCCCCCCC [decane]
mass density (313.15 K, 100 kPa): 714.75 ± 4.3 kg/m3
mass density (313.15 K, 1010 kPa): 715.53 ± 4.3 kg/m3
mass density (313.15 K, 2000 kPa): 716.4 ± 4.3 kg/m3
mass density (313.15 K, 3000 kPa): 717.27 ± 4.3 kg/m3
mass density (313.15 K, 4000 kPa): 718.14 ± 4.3 kg/m3
mass density (313.15 K, 5000 kPa): 718.99 ± 4.3 kg/m3
mass density (313.15 K, 6010 kPa): 719.78 ± 4.3 kg/m3
mass density (313.15 K, 7010 kPa): 720.66 ± 4.3 kg/m3
mass density (313.15 K, 7990 kPa): 721.48 ± 4.3 kg/m3
mass density (313.15 K, 9000 kPa): 722.28 ± 4.3 kg/m3
mass density (313.15 K, 10000 kPa): 723.08 ± 4.3 kg/m3
mass density (313.15 K, 11000 kPa): 723.91 ± 4.3 kg/m3
mass density (313.15 K, 12000 kPa): 724.66 ± 4.3 kg/m3
mass density (313.15 K, 13000 kPa): 725.42 ± 4.4 kg/m3
mass density (313.15 K, 14010 kPa): 726.18 ± 4.4 kg/m3
mass density (313.15 K, 15010 kPa): 726.93 ± 4.4 kg/m3
mass density (313.15 K, 16000 kPa): 727.61 ± 4.4 kg/m3
mass density (313.15 K, 17010 kPa): 728.38 ± 4.4 kg/m3
mass density (313.15 K, 18010 kPa): 729.1 ± 4.4 kg/m3
mass density (313.15 K, 19000 kPa): 729.81 ± 4.4 kg/m3
mass density (313.15 K, 20000 kPa): 730.51 ± 4.4 kg/m3
mass density (323.15 K, 100 kPa): 706.95 ± 4.2 kg/m3
mass density (323.15 K, 1000 kPa): 707.77 ± 4.2 kg/m3
mass density (323.15 K, 1990 kPa): 708.72 ± 4.3 kg/m3
mass density (323.15 K, 3000 kPa): 709.63 ± 4.3 kg/m3
mass density (323.15 K, 4000 kPa): 710.55 ± 4.3 kg/m3
mass density (323.15 K, 5010 kPa): 711.46 ± 4.3 kg/m3
mass density (323.15 K, 5990 kPa): 712.35 ± 4.3 kg/m3
mass density (323.15 K, 7000 kPa): 713.23 ± 4.3 kg/m3
mass density (323.15 K, 8010 kPa): 714.1 ± 4.3 kg/m3
mass density (323.15 K, 8990 kPa): 714.96 ± 4.3 kg/m3
mass density (323.15 K, 10010 kPa): 715.8 ± 4.3 kg/m3
mass density (323.15 K, 11000 kPa): 716.66 ± 4.3 kg/m3
mass density (323.15 K, 12010 kPa): 717.49 ± 4.3 kg/m3
mass density (323.15 K, 13010 kPa): 718.29 ± 4.3 kg/m3
mass density (323.15 K, 14000 kPa): 719.09 ± 4.3 kg/m3
mass density (323.15 K, 15010 kPa): 719.88 ± 4.3 kg/m3
mass density (323.15 K, 16010 kPa): 720.66 ± 4.3 kg/m3
mass density (323.15 K, 17010 kPa): 721.43 ± 4.3 kg/m3
mass density (323.15 K, 17990 kPa): 722.2 ± 4.3 kg/m3
mass density (323.15 K, 18990 kPa): 722.94 ± 4.3 kg/m3
mass density (323.15 K, 20010 kPa): 723.68 ± 4.3 kg/m3
mass density (333.15 K, 100 kPa): 699.17 ± 4.2 kg/m3
mass density (333.15 K, 1000 kPa): 700.04 ± 4.2 kg/m3
mass density (333.15 K, 2010 kPa): 701.02 ± 4.2 kg/m3
mass density (333.15 K, 3000 kPa): 702.01 ± 4.2 kg/m3
mass density (333.15 K, 4010 kPa): 702.98 ± 4.2 kg/m3
mass density (333.15 K, 4990 kPa): 703.93 ± 4.2 kg/m3
mass density (333.15 K, 5990 kPa): 704.88 ± 4.2 kg/m3
mass density (333.15 K, 7000 kPa): 705.81 ± 4.2 kg/m3
mass density (333.15 K, 8000 kPa): 706.73 ± 4.2 kg/m3
mass density (333.15 K, 9010 kPa): 707.63 ± 4.2 kg/m3
mass density (333.15 K, 9990 kPa): 708.53 ± 4.3 kg/m3
mass density (333.15 K, 11000 kPa): 709.45 ± 4.3 kg/m3
mass density (333.15 K, 12000 kPa): 710.31 ± 4.3 kg/m3
mass density (333.15 K, 13010 kPa): 711.16 ± 4.3 kg/m3
mass density (333.15 K, 14000 kPa): 712.01 ± 4.3 kg/m3
mass density (333.15 K, 15000 kPa): 712.85 ± 4.3 kg/m3
mass density (333.15 K, 16010 kPa): 713.67 ± 4.3 kg/m3
mass density (333.15 K, 16990 kPa): 714.48 ± 4.3 kg/m3
mass density (333.15 K, 18000 kPa): 715.29 ± 4.3 kg/m3
mass density (333.15 K, 18990 kPa): 716.08 ± 4.3 kg/m3
mass density (333.15 K, 20000 kPa): 716.87 ± 4.3 kg/m3
mass density (343.15 K, 100 kPa): 691.44 ± 4.2 kg/m3
mass density (343.15 K, 1010 kPa): 692.33 ± 4.2 kg/m3
mass density (343.15 K, 2010 kPa): 693.38 ± 4.2 kg/m3
mass density (343.15 K, 2990 kPa): 694.42 ± 4.2 kg/m3
mass density (343.15 K, 4010 kPa): 695.45 ± 4.2 kg/m3
mass density (343.15 K, 4990 kPa): 696.46 ± 4.2 kg/m3
mass density (343.15 K, 6000 kPa): 697.46 ± 4.2 kg/m3
mass density (343.15 K, 7000 kPa): 698.44 ± 4.2 kg/m3
mass density (343.15 K, 8010 kPa): 699.41 ± 4.2 kg/m3
mass density (343.15 K, 8990 kPa): 700.37 ± 4.2 kg/m3
mass density (343.15 K, 10010 kPa): 701.31 ± 4.2 kg/m3
mass density (343.15 K, 11010 kPa): 702.25 ± 4.2 kg/m3
mass density (343.15 K, 12010 kPa): 703.17 ± 4.2 kg/m3
mass density (343.15 K, 13000 kPa): 704.08 ± 4.2 kg/m3
mass density (343.15 K, 14010 kPa): 704.97 ± 4.2 kg/m3
mass density (343.15 K, 15000 kPa): 705.86 ± 4.2 kg/m3
mass density (343.15 K, 16000 kPa): 706.73 ± 4.2 kg/m3
mass density (343.15 K, 17010 kPa): 707.59 ± 4.3 kg/m3
mass density (343.15 K, 18010 kPa): 708.44 ± 4.3 kg/m3
mass density (343.15 K, 18990 kPa): 709.28 ± 4.3 kg/m3
mass density (343.15 K, 19990 kPa): 710.1 ± 4.3 kg/m3
mass density (353.15 K, 100 kPa): 683.75 ± 4.1 kg/m3
mass density (353.15 K, 1010 kPa): 684.69 ± 4.1 kg/m3
mass density (353.15 K, 2000 kPa): 685.79 ± 4.1 kg/m3
mass density (353.15 K, 3010 kPa): 686.88 ± 4.1 kg/m3
mass density (353.15 K, 4010 kPa): 687.96 ± 4.1 kg/m3
mass density (353.15 K, 5010 kPa): 689.03 ± 4.1 kg/m3
mass density (353.15 K, 5990 kPa): 690.08 ± 4.2 kg/m3
mass density (353.15 K, 7000 kPa): 691.11 ± 4.2 kg/m3
mass density (353.15 K, 8000 kPa): 692.13 ± 4.2 kg/m3
mass density (353.15 K, 9000 kPa): 693.13 ± 4.2 kg/m3
mass density (353.15 K, 10000 kPa): 694.12 ± 4.2 kg/m3
mass density (353.15 K, 11010 kPa): 695.12 ± 4.2 kg/m3
mass density (353.15 K, 12000 kPa): 696.08 ± 4.2 kg/m3
mass density (353.15 K, 13000 kPa): 697.04 ± 4.2 kg/m3
mass density (353.15 K, 13990 kPa): 697.98 ± 4.2 kg/m3
mass density (353.15 K, 15000 kPa): 698.91 ± 4.2 kg/m3
mass density (353.15 K, 16000 kPa): 699.82 ± 4.2 kg/m3
mass density (353.15 K, 16990 kPa): 700.72 ± 4.2 kg/m3
mass density (353.15 K, 18010 kPa): 701.62 ± 4.2 kg/m3
mass density (353.15 K, 19000 kPa): 702.5 ± 4.2 kg/m3
mass density (353.15 K, 20000 kPa): 703.37 ± 4.2 kg/m3
mass density (363.15 K, 100 kPa): 676.12 ± 4.1 kg/m3
mass density (363.15 K, 990 kPa): 677.1 ± 4.1 kg/m3
mass density (363.15 K, 2010 kPa): 678.26 ± 4.1 kg/m3
mass density (363.15 K, 3000 kPa): 679.41 ± 4.1 kg/m3
mass density (363.15 K, 3990 kPa): 680.54 ± 4.1 kg/m3
mass density (363.15 K, 5010 kPa): 681.66 ± 4.1 kg/m3
mass density (363.15 K, 5990 kPa): 682.76 ± 4.1 kg/m3
mass density (363.15 K, 7000 kPa): 683.84 ± 4.1 kg/m3
mass density (363.15 K, 8010 kPa): 684.91 ± 4.1 kg/m3
mass density (363.15 K, 9010 kPa): 685.97 ± 4.1 kg/m3
mass density (363.15 K, 10010 kPa): 687 ± 4.1 kg/m3
mass density (363.15 K, 11000 kPa): 688.04 ± 4.1 kg/m3
mass density (363.15 K, 12010 kPa): 689.05 ± 4.1 kg/m3
mass density (363.15 K, 13010 kPa): 690.06 ± 4.2 kg/m3
mass density (363.15 K, 14000 kPa): 691.04 ± 4.2 kg/m3
mass density (363.15 K, 15010 kPa): 692.02 ± 4.2 kg/m3
mass density (363.15 K, 15990 kPa): 692.98 ± 4.2 kg/m3
mass density (363.15 K, 17000 kPa): 693.93 ± 4.2 kg/m3
mass density (363.15 K, 17990 kPa): 694.86 ± 4.2 kg/m3
mass density (363.15 K, 19000 kPa): 695.79 ± 4.2 kg/m3
mass density (363.15 K, 20000 kPa): 696.7 ± 4.2 kg/m3

— the NIST ThermoML archive (doi:10.1021/acs.jced.8b00554)
